Like-named read-outs stand apart in the source and are kept apart here.
Columns and labels:
[1] = test system: MRSA(QA-12.1); test: MIC, broth microdilution; format: cell-based, S. aureus; settings: Staphylococcus aureus
Experimental: (§1) For the determination of minimum inhibitory concentrations (MIC), the broth microdilution method was used in 96-well plate format, according to the guidelines of the Clinical and Laboratory Standards Institute and the recommendations of the European Committee on Antimicrobial Susceptibility Testing (EUCAST). The dilutions of the bacterial suspension of the specific bacterial strain, corresponding to the 0.5 McFarland turbidity standard, were prepared with […] Mueller–Hinton broth with TES (Thermo Fisher Scientific) to obtain an end inoculum of 10^5 CFU/mL. The compounds were dissolved in DMSO and mixed with the inoculum. […] The MIC was determined as the lowest concentration of antibiotic that prevented visible bacterial growth. Tetracycline was used as a positive control on each test plate.

[2] = test system: MRSA (QA-11.2); test: MIC, broth microdilution; format: cell-based, S. aureus; settings: Staphylococcus aureus
Experimental: as §1

[3] = test system: MRSA (QA-11.7); test: MIC, broth microdilution; format: cell-based, S. aureus; settings: Staphylococcus aureus
Experimental: as §1

[4] = molecular target: T1, E. coli DNA gyrase (Escherichia coli, UniProt P0AES4); test: DNA gyrase supercoiling inhibition assay (high-throughput plate assay); format: biochemical
T1 construct: purchased Inspiralis (Norwich, UK)
T1 sequence (P0AES4 whole entry): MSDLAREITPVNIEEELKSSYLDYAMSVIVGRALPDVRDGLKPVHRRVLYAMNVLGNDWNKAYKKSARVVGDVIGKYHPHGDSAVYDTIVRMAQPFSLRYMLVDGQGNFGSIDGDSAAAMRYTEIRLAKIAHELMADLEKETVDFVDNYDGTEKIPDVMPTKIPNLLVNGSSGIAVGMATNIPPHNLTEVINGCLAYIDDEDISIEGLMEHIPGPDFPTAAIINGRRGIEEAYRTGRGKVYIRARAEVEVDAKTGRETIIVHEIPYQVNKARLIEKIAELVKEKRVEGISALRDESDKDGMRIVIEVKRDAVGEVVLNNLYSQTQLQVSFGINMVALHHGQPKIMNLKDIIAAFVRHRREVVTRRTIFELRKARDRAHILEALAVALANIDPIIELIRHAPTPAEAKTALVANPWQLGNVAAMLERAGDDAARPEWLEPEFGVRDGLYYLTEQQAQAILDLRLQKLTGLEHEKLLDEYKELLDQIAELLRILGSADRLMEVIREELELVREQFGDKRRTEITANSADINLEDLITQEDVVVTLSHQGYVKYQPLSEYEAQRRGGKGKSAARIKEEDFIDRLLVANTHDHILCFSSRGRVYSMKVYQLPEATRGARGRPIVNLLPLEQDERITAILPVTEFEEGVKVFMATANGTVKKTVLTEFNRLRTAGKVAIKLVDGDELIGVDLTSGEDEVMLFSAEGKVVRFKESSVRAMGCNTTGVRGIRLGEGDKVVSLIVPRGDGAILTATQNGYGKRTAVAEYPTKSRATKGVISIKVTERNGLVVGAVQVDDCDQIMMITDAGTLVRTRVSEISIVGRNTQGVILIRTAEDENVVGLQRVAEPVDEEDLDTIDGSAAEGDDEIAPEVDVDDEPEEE
Experimental: (§2) To determine the IC50 values of the compounds for S. aureus and E. coli, a DNA gyrase supercoiling high-throughput plate assay and a topoIV relaxation high-throughput plate assay were performed. Assay kits and black streptavidin-coated 96-well microtiter plates are available from Inspiralis (Norwich, UK). For pre-screening, an inhibitor concentration of 100 μM was used. […] A nonlinear regression-based fit of the inhibition curves was used, with the log [inhibitor] versus slope of the reaction variables (four parameters) and a symmetric equation. […] To determine IC50 values, two independent repetitions were performed and the average was calculated.

[5] = molecular target: T2, S. aureus DNA gyrase (Staphylococcus aureus, UniProt P20831); test: biochemical; settings: supercoiling inhibition; mean of two independent measurements ± SD
T2 construct: purchased Inspiralis (Norwich, UK)
T2 sequence (P20831 whole entry): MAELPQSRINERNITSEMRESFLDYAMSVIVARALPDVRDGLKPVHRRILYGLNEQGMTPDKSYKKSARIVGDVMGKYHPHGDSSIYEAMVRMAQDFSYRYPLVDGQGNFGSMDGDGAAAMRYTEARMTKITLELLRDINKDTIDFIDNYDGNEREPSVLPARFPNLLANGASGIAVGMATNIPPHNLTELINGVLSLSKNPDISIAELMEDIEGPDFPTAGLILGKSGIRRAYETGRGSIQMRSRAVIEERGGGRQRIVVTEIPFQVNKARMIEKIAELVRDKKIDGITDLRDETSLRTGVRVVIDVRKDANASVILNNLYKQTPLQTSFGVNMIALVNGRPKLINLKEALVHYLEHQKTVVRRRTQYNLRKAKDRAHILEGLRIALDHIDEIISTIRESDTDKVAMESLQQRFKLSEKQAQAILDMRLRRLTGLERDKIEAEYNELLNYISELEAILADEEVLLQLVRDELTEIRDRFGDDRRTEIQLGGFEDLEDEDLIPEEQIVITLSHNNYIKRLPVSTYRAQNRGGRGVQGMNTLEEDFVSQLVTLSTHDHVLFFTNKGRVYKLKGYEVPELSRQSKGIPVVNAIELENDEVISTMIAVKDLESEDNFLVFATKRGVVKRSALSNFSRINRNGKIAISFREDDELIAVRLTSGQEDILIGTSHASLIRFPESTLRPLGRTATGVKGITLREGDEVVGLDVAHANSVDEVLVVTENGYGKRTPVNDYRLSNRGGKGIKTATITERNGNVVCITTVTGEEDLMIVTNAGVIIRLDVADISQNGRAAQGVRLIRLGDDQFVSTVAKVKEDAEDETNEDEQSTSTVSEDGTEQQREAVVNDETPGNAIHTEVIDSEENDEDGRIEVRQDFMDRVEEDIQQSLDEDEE
T2 sequence (P0A0K8 whole entry partner): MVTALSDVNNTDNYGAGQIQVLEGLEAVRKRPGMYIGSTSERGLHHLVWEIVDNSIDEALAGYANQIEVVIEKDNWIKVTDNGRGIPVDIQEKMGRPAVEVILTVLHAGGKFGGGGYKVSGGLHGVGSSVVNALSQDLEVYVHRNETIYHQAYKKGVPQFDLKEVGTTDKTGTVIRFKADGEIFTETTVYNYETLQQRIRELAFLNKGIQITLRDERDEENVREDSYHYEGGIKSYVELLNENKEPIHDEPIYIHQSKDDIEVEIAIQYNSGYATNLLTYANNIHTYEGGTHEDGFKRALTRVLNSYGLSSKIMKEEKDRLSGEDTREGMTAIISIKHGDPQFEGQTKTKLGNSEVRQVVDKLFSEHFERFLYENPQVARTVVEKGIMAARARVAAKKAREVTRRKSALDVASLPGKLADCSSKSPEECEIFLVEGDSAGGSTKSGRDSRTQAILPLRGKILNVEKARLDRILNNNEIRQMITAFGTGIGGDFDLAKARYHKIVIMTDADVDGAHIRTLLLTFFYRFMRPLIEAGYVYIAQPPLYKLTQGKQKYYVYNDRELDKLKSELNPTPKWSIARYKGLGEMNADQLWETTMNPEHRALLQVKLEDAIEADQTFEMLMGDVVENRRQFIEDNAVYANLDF
Experimental: as §2

[6] = molecular target: T3, S. aureus topoIV (Staphylococcus aureus, UniProt P0C1U9); test: biochemical; settings: relaxation inhibition; mean of two independent measurements ± SD
T3 construct: purchased Inspiralis (Norwich, UK)
Experimental: as §2

[7] = test system: P. aeruginosa RDK 184; test: MIC, broth microdilution; format: cell-based; settings: Pseudomonas aeruginosa
Experimental: as §1

[8] = test system: K. pneumoniae; test: MIC, broth microdilution; format: cell-based; settings: Klebsiella pneumoniae
Experimental: as §1

[9] = test system: E. coli D22; test: MIC, broth microdilution; format: cell-based; settings: Escherichia coli
Experimental: as §1

[10] = test system: VRE; test: MIC, broth microdilution; format: cell-based; settings: Enterococcus
Experimental: as §1

[11] = test system: S. aureus (ATCC 29213); test: MIC, broth microdilution; format: cell-based; settings: Staphylococcus aureus, ATCC29213
Experimental: as §1

[12] = test system: E. coli ESBL QA-11.3; test: MIC, broth microdilution; format: cell-based; settings: Escherichia coli
Experimental: as §1

[13] = test system: A. baumannii; test: MIC, broth microdilution; format: cell-based; settings: Acinetobacter baumannii
Experimental: as §1

[14] = test system: E. faecalis RDK 057; test: MIC, broth microdilution; format: cell-based
Experimental: as §1

[15] = test system: E. coli (ATCC 25922); test: MIC, broth microdilution; format: cell-based; settings: Escherichia coli
Experimental: as §1

[16] = test system: E. coli N43 (CGSC# 5583); test: MIC, broth microdilution; format: cell-based; settings: Escherichia coli
Experimental: as §1

[17] = molecular target: T4, E. coli topoIV (Escherichia coli, UniProt P0AFI2); test: topoIV relaxation inhibition assay (high-throughput plate assay); format: biochemical
T4 construct: purchased Inspiralis (Norwich, UK)
T4 sequence (P20083 whole entry): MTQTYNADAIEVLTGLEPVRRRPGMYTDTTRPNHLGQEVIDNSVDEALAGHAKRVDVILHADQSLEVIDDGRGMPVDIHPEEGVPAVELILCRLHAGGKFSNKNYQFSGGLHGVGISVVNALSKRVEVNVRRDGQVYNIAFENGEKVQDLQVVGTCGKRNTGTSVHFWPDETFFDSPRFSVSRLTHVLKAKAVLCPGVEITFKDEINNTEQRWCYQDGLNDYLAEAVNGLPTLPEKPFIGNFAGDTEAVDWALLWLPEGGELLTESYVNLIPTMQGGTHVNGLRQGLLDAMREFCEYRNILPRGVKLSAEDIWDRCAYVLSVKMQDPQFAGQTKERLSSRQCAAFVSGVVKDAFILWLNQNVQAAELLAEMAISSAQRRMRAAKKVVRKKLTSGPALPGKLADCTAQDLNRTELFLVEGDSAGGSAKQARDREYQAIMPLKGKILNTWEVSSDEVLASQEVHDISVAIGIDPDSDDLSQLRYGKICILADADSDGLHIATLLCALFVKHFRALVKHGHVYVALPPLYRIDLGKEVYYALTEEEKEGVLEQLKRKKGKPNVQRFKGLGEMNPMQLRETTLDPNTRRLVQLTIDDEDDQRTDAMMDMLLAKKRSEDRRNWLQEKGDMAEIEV
T4 sequence (P0AFI2 whole entry): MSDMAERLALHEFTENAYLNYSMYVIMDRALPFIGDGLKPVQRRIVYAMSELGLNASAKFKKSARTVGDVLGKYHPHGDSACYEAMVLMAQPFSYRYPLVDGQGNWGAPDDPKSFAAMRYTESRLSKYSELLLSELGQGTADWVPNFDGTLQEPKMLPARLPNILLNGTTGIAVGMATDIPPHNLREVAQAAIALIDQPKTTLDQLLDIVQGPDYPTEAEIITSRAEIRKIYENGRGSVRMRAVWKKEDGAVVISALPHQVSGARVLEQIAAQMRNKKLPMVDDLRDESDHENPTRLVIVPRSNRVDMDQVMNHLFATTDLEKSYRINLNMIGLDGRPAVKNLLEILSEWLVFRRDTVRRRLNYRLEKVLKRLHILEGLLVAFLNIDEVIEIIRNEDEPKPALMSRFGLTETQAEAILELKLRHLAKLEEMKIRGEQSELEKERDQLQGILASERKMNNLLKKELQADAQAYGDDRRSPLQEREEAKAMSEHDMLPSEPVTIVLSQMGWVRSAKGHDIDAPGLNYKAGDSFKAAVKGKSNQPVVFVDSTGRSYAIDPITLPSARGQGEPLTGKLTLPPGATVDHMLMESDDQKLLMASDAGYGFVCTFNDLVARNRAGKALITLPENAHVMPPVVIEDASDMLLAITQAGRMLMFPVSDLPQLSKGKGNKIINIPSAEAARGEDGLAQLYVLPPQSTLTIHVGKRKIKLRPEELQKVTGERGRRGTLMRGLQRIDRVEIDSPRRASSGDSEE
Experimental: as §2

[18] = Table S3, read-out: MIC (μM) MRSA(QA-12.1)
[19] = strain resistant to cefoxitin, gentamicin, kanamycin, rifampicin, streptomycin, sulfamethoxazole, tetracycline, read-out: MIC MRSA(QA-12.1)
[20] = Table S3, read-out: MIC (μM) MRSA (QA-11.2)
[21] = Table S3, read-out: MIC (μM) MRSA (QA-11.7)
[22] = strain resistant to cefoxitin, ciprofloxacin, clindamycin, erythromycin, tetracycline, thiamulin, trimethoprim, read-out: MIC MRSA (QA-11.7)
[23] = RDK184, 20 h, Table S3, read-out: MIC (μM) P. aeruginosa RDK 184
[24] = RDK184, read-out: MIC P. aeruginosa RDK 184
[25] = Table S3, read-out: MIC (μM) K. pneumoniae
[26] = D22, Table S3, lpxC mutation, read-out: MIC (μM) E. coli D22
[27] = D22, lpxC mutation that increases membrane permeability, read-out: MIC E. coli D22
[28] = Table S3, read-out: MIC (μM) VRE
[29] = Table S3, read-out: MIC (μM) S. aureus (ATCC 29213)
[30] = read-out: MIC S. aureus (ATCC 29213)
[31] = ESBLQA11.3, Table S3, read-out: MIC (μM) E. coli ESBL QA:11.3
[32] = ESBLQA11.3, read-out: MIC E. coli ESBL QA-11.3
[33] = Table S3, read-out: MIC (μM) A. baumannii
[34] = Enterococcus faecalis, RDK057; Table S3; read-out: MIC (μM) E. faecalis DRK 057
[35] = ATCC25922, Table S3, read-out: MIC (μM) E. coli (ATCC 25922)
[36] = ATCC25922, read-out: MIC E. coli (ATCC 25922)
[37] = read-out: MIC E. coli N43 (CGSC# 5583)
[38] = 20 h, Table S3, read-out: MIC (μM) K. pneumoniae
[39] = ESBLQA11.3, 20 h, Table S3, read-out: MIC (μM) E. coli ESBL QA:11.3
[40] = Enterococcus faecalis, RDK057; read-out: MIC E. faecalis RDK 057
[41] = ATCC25922, 20 h, Table S3, read-out: MIC (μM) E. coli (ATCC 25922)

Row | Structure (SMILES) | MIC [1, 18] [µM] | MIC [1, 19] [µg/mL] | MIC [2, 20] [µM] | MIC ([2]; read-out: MIC MRSA (QA-11.2)) [µg/mL] | MIC [3, 21] [µM] | MIC [3, 22] [µg/mL] | IC50 [4] [µM] | IC50 [5] [µM] | IC50 [6] [µM] | MIC [7, 23] [µM] | MIC [7, 24] [µg/mL] | MIC ([8]; read-out: MIC K. pneumoniae) [µg/mL] | MIC [9, 27] [µg/mL] | MIC [10, 28] [µM] | MIC ([10]; read-out: MIC VRE) [µg/mL] | MIC [11, 29] [µM] | MIC [11, 30] [µg/mL] | MIC [12, 32] [µg/mL] | MIC [13, 33] [µM] | MIC ([13]; read-out: MIC A. baumannii) [µg/mL] | other results
1 | COc1ccc2nccc(CCN3CCC(NCc4ccc(C)cc4)CC3)c2n1 [Compound 5, 1-(2-(6-Methoxy-1,5-naphthyridin-4-yl)ethyl)-N-(4-methylbenzyl)piperidin-4-amine] | 0.041 | 0.016 | 0.082 | 0.032 | 0.041 | 0.016 | 1.019 ± 0.005 | 0.145 ± 0.014 | 1.23 ± 0.258 | > 328 | > 128 | 16 | 1 | 0.082 | 0.032 | 0.082 | 0.032 | 4 | 2.56 | 1 | MIC [8, 25]: 41 µM; MIC [9, 26]: 2.56 µM; MIC [12, 31]: 10.2 µM; MIC ([14]; Enterococcus faecalis, RDK057, read-out: MIC E. faecalis RDK 057): 0.125 µg/mL; MIC [14, 34]: 0.32 µM; MIC [15, 35]: 5.12 µM; MIC [15, 36]: 2 µg/mL; MIC ([16]; read-out: MIC (μM) E. coli N43): 0.32 µM; MIC [16, 37]: 0.125 µg/mL; IC50 [17]: 0.089 ± 0.019 µM
2 | COc1ccc2nccc(OCC3CCC(NCc4ccc(C)cc4)CC3)c2n1 (stereo not drawn) [Compound 6] | 5.12 | 2 | 1.28 | 0.5 | 2.56 | 1 | 1.52 ± 0.361 | 0.403 ± 0.02 | > 100 | > 328 | > 128 | > 128 | 32 | 5.12 | 2 | 2.56 | 1 | > 128 | 164 | 64 | MIC [8, 38]: > 328 µM; MIC [9, 26]: 81.9 µM; MIC [12, 39]: > 328 µM; MIC [14, 34]: 20.5 µM; MIC [14, 40]: 8 µg/mL; MIC [15, 41]: > 328 µM; MIC [15, 36]: > 128 µg/mL; MIC ([16]; read-out: MIC (μM) E. coli N43): 10.2 µM; MIC [16, 37]: 4 µg/mL; IC50 [17]: 2.89 ± 0.88 µM
3 | COc1ccc2nccc(OCC3CCC(NCc4ccc(C)cc4)CO3)c2n1 (stereo not drawn) [Compound 7, 6-(((6-Methoxy-1,5-naphthyridin-4-yl)oxy)methyl)-N-(4-methylbenzyl)tetrahydro-2H-pyran-3-amine] | 1.28 | 0.5 | 0.64 | 0.25 | 2.56 | 1 | 1.31 ± 0.348 | 0.194 ± 0.018 | > 100 | > 328 | > 128 | > 128 | 32 | 5.12 | 2 | 1.28 | 0.5 | > 128 | 164 | 64 | MIC [8, 38]: > 328 µM; MIC [9, 26]: 81.9 µM; MIC [12, 39]: > 328 µM; MIC ([14]; Enterococcus faecalis, RDK057, read-out: MIC (μM) E. faecalis DRK 057): 10.2 µM; MIC [14, 40]: 4 µg/mL; MIC [15, 41]: > 328 µM; MIC [15, 36]: > 128 µg/mL; MIC ([16]; read-out: MIC (μM) E. coli N43): 10.2 µM; MIC [16, 37]: 4 µg/mL; IC50 [17]: 1.53 ± 0.043 µM
4 | COc1ccc2nccc(C(O)CC3CCC(NCc4ccc(C)cc4)CC3)c2n1 (stereo not drawn) [Compound 8, 1-(6-Methoxy-1,5-naphthyridin-4-yl)-2-(4-((4-methylbenzyl)amino)cyclohexyl)ethan-1-ol] | 0.161 | 0.063 | 0.082 | 0.032 | 0.32 | 0.125 | 1.32 ± 0.46 | 0.077 ± 0.01 | 2.5 ± 0.252 | 328 | 128 | 16 | 1 | 0.32 | 0.125 | 0.161 | 0.063 | 8 | 5.12 | 2 | MIC [8, 25]: 41 µM; MIC ([9]; D22, read-out: MIC (μM) E. coli D22): 2.56 µM; MIC [12, 31]: 20.5 µM; MIC [14, 34]: 0.64 µM; MIC [14, 40]: 0.25 µg/mL; MIC [15, 35]: 20.5 µM; MIC [15, 36]: 8 µg/mL; MIC ([16]; read-out: MIC (μM) E. coli N43): 2.56 µM; MIC [16, 37]: 1 µg/mL; IC50 [17]: 0.083 µM
